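Grown in 96-well plates, cells were treated for 48 hours with each compound at five concentrations. Insufficient inhibition: endpoint recorded as highest concentration tested. Here, GI50 denotes the concentration required for 50% inhibition of growth. Definition used: TGI = concentration required for complete inhibition of growth.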
Tests used:
Assay in all cases: NCI anticancer screen, dose series, 48 h
[1] = test system: OVCAR-8 ovarian
[2] = test system: MDA-MB-435
[3] = test system: EKVX NSCLC
[4] = test system: OVCAR-5 ovarian
[5] = test system: RPMI-8226 leukemia
[6] = test system: MDA-MB-231 breast
[7] = test system: CAKI-1 renal
[8] = test system: UACC-62 melanoma
[9] = test system: M14 melanoma
[10] = test system: MALME-3M melanoma
[11] = test system: TK-10 renal
[12] = test system: OVCAR-4 ovarian
[13] = test system: 786-0 renal
[14] = test system: NCI-H23 lung
[15] = test system: NCI/ADR-RES ovarian
[16] = test system: HOP-62 NSCLC
[17] = test system: KM12 colon
[18] = test system: HT29 colon
[19] = test system: PC-3 prostate
[20] = test system: LOX IMVI melanoma
[21] = test system: ACHN renal
[22] = test system: SN12C renal
[23] = test system: SF-295 CNS
[24] = test system: SK-MEL-5 melanoma
[25] = test system: HS 578T breast
[26] = test system: SK-OV-3 ovarian
[27] = test system: MDA-N
[28] = test system: HCT-15 colon
[29] = test system: UACC-257 melanoma
[30] = test system: SF-268 CNS
[31] = test system: T-47D breast
[32] = test system: NCI-H522 lung
[33] = test system: A498 renal
[34] = test system: MOLT-4 leukemia
[35] = test system: HL-60(TB) leukemia
[36] = test system: A549 NSCLC
[37] = test system: NCI-H226 lung
[38] = test system: SK-MEL-2 melanoma
[39] = test system: BT-549 breast
[40] = test system: IGROV1 ovarian
[41] = test system: RXF 393 renal
[42] = test system: HCT-116 colon
[43] = test system: COLO 205 colon
[44] = test system: CCRF-CEM leukemia
[45] = test system: DU-145 prostate
[46] = test system: U251 CNS
[47] = test system: UO-31 renal
[48] = test system: OVCAR-3 ovarian
[49] = test system: SNB-19 CNS
[50] = test system: K-562 leukemia
[51] = test system: SNB-75 CNS
[52] = test system: SW-620 colon
[53] = test system: SK-MEL-28 melanoma
[54] = test system: MCF7 breast
[55] = test system: HCC-2998 colon
[56] = test system: NCI-H460 lung
[57] = test system: HOP-92 NSCLC
[58] = test system: SF-539 CNS
[59] = test system: SR leukemia

Work on `Cn1/c(=N\S(=O)(=O)c2ccccc2)n(S(=O)(=O)c2ccccc2)c2ccccc21` yielded a TGI [1] of over 100 µM, a TGI [2] of over 100 µM and a TGI [3] of over 100 µM. For the same compound, the TGI [4] was over 100 µM, the TGI [5] was over 100 µM and the TGI [6] was over 100 µM. For the same compound, the TGI [7] was over 100 µM, the TGI [8] was over 100 µM and the TGI [9] was over 100 µM. It also gave a TGI [10] of over 100 µM, a TGI [11] of over 100 µM and a TGI [12] of over 100 µM. For the same compound, the TGI [13] was over 100 µM, the TGI [14] was over 100 µM and the TGI [15] was over 100 µM. It also gave a TGI [16] of over 100 µM, a TGI [17] of over 100 µM and a TGI [18] of over 100 µM. The TGI [19] was over 100 µM, the TGI [20] was over 100 µM and the TGI [21] was over 100 µM. For the same compound, the TGI [22] was over 100 µM, the TGI [23] was over 100 µM and the TGI [24] was over 100 µM. The TGI [25] was over 100 µM, the TGI [26] was over 100 µM and the TGI [27] was over 100 µM. The TGI [28] was over 100 µM, the TGI [29] was over 100 µM and the TGI [30] was over 100 µM. The TGI [31] was over 100 µM, the TGI [32] was over 100 µM and the TGI [33] was over 100 µM. It also gave a TGI [34] of over 100 µM, a TGI [35] of 7.16 µM and a TGI [36] of over 100 µM. For the same compound, the TGI [37] was over 100 µM, the TGI [38] was over 100 µM and the TGI [39] was over 100 µM. The TGI [40] was over 100 µM, the TGI [41] was over 100 µM and the TGI [42] was over 100 µM. For the same compound, the TGI [43] was over 100 µM, the TGI [44] was 83.3 µM and the TGI [45] was over 100 µM. For the same compound, the TGI [46] was over 100 µM, the TGI [47] was over 100 µM and the TGI [48] was over 100 µM. For the same compound, the TGI [49] was over 100 µM, the TGI [50] was over 100 µM and the TGI [51] was over 100 µM. For the same compound, the TGI [52] was over 100 µM and the TGI [53] was over 100 µM.

`CC1OC(O[C@H]2C3C=CO[C@@H](OC4OC(CO)C(O)C(O)C4O)C3[C@@]3(COC(=O)/C=C/c4ccc(O)cc4)O[C@@H]23)C(O)C(O)C1O` (stereo partly drawn) gave a TGI [1] of over 100 µM, a TGI [54] of over 100 µM and a TGI [2] of over 100 µM. The TGI [55] was over 100 µM, the TGI [3] was over 100 µM and the TGI [4] was over 100 µM. For the same compound, the TGI [5] was over 100 µM, the TGI [6] was over 100 µM and the TGI [7] was over 100 µM. It also gave a TGI [8] of over 100 µM, a TGI [9] of over 100 µM and a TGI [10] of over 100 µM. For the same compound, the TGI [11] was over 100 µM, the TGI [12] was over 100 µM and the TGI [13] was over 100 µM. It also gave a TGI [14] of over 100 µM, a TGI [56] of over 100 µM and a TGI [15] of over 100 µM. The TGI [16] was over 100 µM, the TGI [17] was over 100 µM and the TGI [18] was over 100 µM. It also gave a TGI [19] of over 100 µM, a TGI [20] of over 100 µM and a TGI [21] of over 100 µM. It also gave a TGI [22] of over 100 µM, a TGI [23] of over 100 µM and a TGI [24] of over 100 µM. The TGI [25] was over 100 µM, the TGI [26] was over 100 µM and the TGI [27] was over 100 µM. For the same compound, the TGI [28] was over 100 µM, the TGI [29] was over 100 µM and the TGI [57] was over 100 µM. The TGI [30] was over 100 µM, the TGI [31] was over 100 µM and the TGI [32] was over 100 µM. For the same compound, the TGI [33] was over 100 µM, the TGI [34] was over 100 µM and the TGI [35] was over 100 µM. It also gave a TGI [36] of over 100 µM, a TGI [37] of over 100 µM and a TGI [38] of over 100 µM. The TGI [39] was over 100 µM, the TGI [40] was over 100 µM and the TGI [41] was over 100 µM. For the same compound, the TGI [42] was over 100 µM, the TGI [43] was over 100 µM and the TGI [45] was over 100 µM. The TGI [46] was over 100 µM, the TGI [47] was over 100 µM and the TGI [48] was over 100 µM. The TGI [49] was over 100 µM, the TGI [50] was over 100 µM and the TGI [51] was over 100 µM. For the same compound, the TGI [52] was over 100 µM and the TGI [53] was over 100 µM.

`Cc1cc(Cl)ccc1NC(=O)c1cc2ccccc2cc1O` was tested, and the GI50 [1] was 0.882 µM, the TGI [1] was over 100 µM and the GI50 [54] was 1.57 µM. The TGI [54] was over 100 µM, the GI50 [2] was 0.555 µM and the TGI [2] was over 100 µM. For the same compound, the GI50 [55] was 3.92 µM, the TGI [55] was over 100 µM and the GI50 [3] was 2.61 µM. For the same compound, the TGI [3] was over 100 µM, the GI50 [4] was 4.2 µM and the TGI [4] was over 100 µM. For the same compound, the GI50 [5] was 0.294 µM, the TGI [5] was 1.18 µM and the GI50 [6] was 1.01 µM. The TGI [6] was 25.5 µM, the GI50 [7] was 0.381 µM and the TGI [7] was over 100 µM. The GI50 [8] was 0.354 µM, the TGI [8] was over 100 µM and the GI50 [9] was 0.657 µM. The TGI [9] was over 100 µM, the GI50 [10] was 0.342 µM and the TGI [10] was over 100 µM. It also gave a GI50 [11] of 1.56 µM, a TGI [11] of over 100 µM and a GI50 [12] of 1.94 µM. For the same compound, the TGI [12] was over 100 µM, the GI50 [13] was 1.19 µM and the TGI [13] was over 100 µM. For the same compound, the GI50 [14] was 0.295 µM, the TGI [14] was over 100 µM and the GI50 [56] was 0.511 µM. The TGI [56] was over 100 µM, the GI50 [15] was 0.433 µM and the GI50 [16] was 2.68 µM. The TGI [16] was over 100 µM, the GI50 [17] was 1.91 µM and the TGI [17] was over 44 µM. It also gave a GI50 [18] of 12.3 µM, a TGI [18] of over 100 µM and a GI50 [58] of 0.783 µM. It also gave a TGI [58] of over 100 µM, a GI50 [19] of 0.875 µM and a TGI [19] of 28.4 µM. It also gave a GI50 [20] of 0.539 µM, a TGI [20] of over 100 µM and a GI50 [21] of 0.583 µM. It also gave a TGI [21] of over 100 µM, a GI50 [22] of 0.377 µM and a TGI [22] of over 100 µM. For the same compound, the GI50 [23] was 2.56 µM, the TGI [23] was over 28.6 µM and the GI50 [24] was 0.373 µM. The TGI [24] was 2.43 µM, the GI50 [25] was 1.31 µM and the TGI [25] was over 100 µM. The GI50 [26] was 2.11 µM, the TGI [26] was over 100 µM and the GI50 [28] was 0.641 µM. It also gave a TGI [28] of over 100 µM, a GI50 [29] of 0.611 µM and a TGI [29] of 3.84 µM. The GI50 [57] was 0.146 µM, the TGI [57] was 0.545 µM and the GI50 [30] was 1.91 µM. The TGI [30] was over 100 µM, the GI50 [31] was 0.852 µM and the TGI [31] was over 26.8 µM. For the same compound, the GI50 [32] was 0.304 µM, the TGI [32] was over 29.4 µM and the GI50 [33] was 0.22 µM. It also gave a TGI [33] of 1.4 µM, a GI50 [34] of 0.651 µM and a TGI [34] of over 36.2 µM. It also gave a GI50 [35] of 0.435 µM, a TGI [35] of 3.47 µM and a GI50 [36] of 0.931 µM. For the same compound, the TGI [36] was over 100 µM, the GI50 [37] was 0.93 µM and the TGI [37] was over 100 µM. The GI50 [38] was 0.432 µM, the GI50 [39] was 0.673 µM and the TGI [39] was over 100 µM. The GI50 [40] was 0.993 µM, the TGI [40] was over 100 µM and the GI50 [41] was 1.18 µM. It also gave a TGI [41] of 8.6 µM, a GI50 [42] of 0.405 µM and a TGI [42] of over 100 µM. For the same compound, the GI50 [43] was 6.46 µM, the TGI [43] was 30.5 µM and the GI50 [59] was 0.443 µM. The TGI [59] was 8.77 µM, the GI50 [44] was 1.22 µM and the TGI [44] was over 100 µM. It also gave a GI50 [45] of 1.15 µM, a TGI [45] of over 100 µM and a GI50 [46] of 0.503 µM. The TGI [46] was over 27.5 µM, the GI50 [47] was 0.405 µM and the TGI [47] was over 100 µM. It also gave a GI50 [48] of 0.369 µM, a TGI [48] of over 34.9 µM and a GI50 [49] of 0.736 µM. The TGI [49] was over 100 µM, the GI50 [50] was 0.419 µM and the TGI [50] was over 100 µM. For the same compound, the GI50 [51] was 7.14 µM, the TGI [51] was over 100 µM and the GI50 [52] was 1.59 µM. The TGI [52] was over 100 µM, the GI50 [53] was 0.767 µM and the TGI [53] was over 100 µM.
